Data from US6660501B2, “Production of proteins by cell culture” (Lonza Group, AG, priority 1986, dated 2003).

System: NT1/19 cells
Assay: Effect of varying alkanoates on antibody production from hybridoma cells
Assay type: cell-based
Settings: for AVERAGE DATA FROM EXP. #1 & #2: average of relative productivity, control 100.00; for PRODUCTIVITY EXP. #1: control 3.30; for PRODUCTIVITY EXP #2: control 2.39
Description: The IgM secreting mouse hybridoma cell line NB1/19 was grown in suspension culture in Dulbeccos Modified Eagles Minimum (DMEM) serum-free medium containing albumin, insulin, transferrin, gentamycin and other additives as required to cultivate cells in suspension culture. The NB1/19 cell line produces a mouse monoclonal antibody having specificity for an antigenic determinant of human B-type blood cells. The preparation of this call line is described in detail in the specification of British Patent GB 2097425B. It will be appreciated, however, that other hybridoma cell lines may be used in place of this particular cell line as appropriate in this and other examples.
The cells were grown to a viable cell density of 1.0-1.5×10^6 cells/ml. Viable cell density was determined by counting the number of cells which exclude trypan blue, a staining agent. A sample of the suspension culture was diluted in a serum-free medium to a density of about 1.3×10^5 cells/ml. Aliquots of 50 ml in volume were dispensed into shake flasks and sodium butyrate added at concentrations of 0.1 mM, 0.3 mM, 0.5 mM and 1.0 mM.
The shake flasks were gassed with 5% CO2-95% air, and sealed and incubated with shaking at 37° C. for up to 207 hours. (Table 1). Samples ([…]) were removed from the culture by pipette. 100 μl was used to determine viable cell count and the reminder centrifuged at 300×g for five minutes. Supernatants were stored at −20° C. prior to antibody determination by enzyme linked immunosorbent assay (ELISA).
NT1/19 cells were cultured as in Example 1. Varying straight chain sodium alkanoate salts (propionate, butyrate, bentanoate or hexanoate) were added to the inoculum at the concentrations indicated in Table 5.

Row | SMILES | AVERAGE DATA FROM EXP. #1 & #2 (0.50 mM alkanoate) | PRODUCTIVITY EXP. #1 (0.50 mM alkanoate) | AVERAGE DATA FROM EXP. #1 & #2 (1.00 mM alkanoate) | PRODUCTIVITY EXP #2 (1.00 mM alkanoate) | PRODUCTIVITY EXP. #1 (1.00 mM alkanoate) | RELATIVE PRODUCTIVITY EXP. #1 (0.50 mM alkanoate) | RELATIVE PRODUCTIVITY EXP. #1 (1.00 mM alkanoate) | RELATIVE PRODUCTIVITY EXP. #2 (1.00 mM alkanoate)
1 | CCC(=O)O [PROPIONATE, propionate] | 172.73 | 5.70 ug antibody per 10^5 cells | 210.07 | 4.95 ug antibody per 10^5 cells | 7.03 ug antibody per 10^5 cells | – | – | –
2 | CCCCC(=O)[O-].[Na+] [PENANOATE, bentanoate] | 163.64 | 5.40 ug antibody per 10^5 cells | 218.09 | 5.50 ug antibody per 10^5 cells | 6.80 ug antibody per 10^5 cells | 163.6 % of control | 206.1 % of control | 230.1 % of control
